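All cell lines were grown in 96-well plates and treated with compound for 48 hours. GI50 marks 50% less growth.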 Calls of active or inactive are those of the source. Cut-off read from the data, not from the text of the source: active = GI50 up to about 1.1 µM and inactive = higher.
Legend:
Experiment in all cases: DTP human tumour cell line panel, 48 h
SN12C = system: SN12C
OVCAR-5 = system: OVCAR-5
SK-MEL-2 = system: SK-MEL-2
Hs-578T = system: Hs-578T
SK-OV-3 = system: SK-OV-3
Malme-3M = system: Malme-3M
UO-31 = system: UO-31
EKVX = system: EKVX
COLO 205 = system: COLO 205
OVCAR-3 = system: OVCAR-3
HL-60 = system: HL-60
LOX IMVI = system: LOX IMVI
HOP-92 = system: HOP-92
SF-539 = system: SF-539
TK-10 = system: TK-10
SF-268 = system: SF-268
A498 = system: A498
RXF 393 = system: RXF 393
RPMI-8226 = system: RPMI-8226

Measured: GI50

CC1C2(C)OC(=N)C(C#N)(C(c3ccco3)O2)C1(C#N)C#N (centres undefined)
inactive: SN12C 16.7 µM | OVCAR-5 29.7 µM | SK-MEL-2 29.4 µM | Hs-578T 24.9 µM | SK-OV-3 > 100 µM | Malme-3M 31.2 µM | UO-31 38.5 µM | EKVX 34 µM | COLO 205 13.6 µM | OVCAR-3 21.3 µM | HL-60 18.8 µM | LOX IMVI 19.2 µM | HOP-92 22.3 µM | SF-539 19.5 µM | TK-10 37.9 µM | SF-268 29 µM | A498 > 100 µM | RXF 393 22.6 µM

COc1ccccc1-c1nc(-c2ccccc2O)n[nH]1
inactive: SN12C > 100 µM | OVCAR-5 > 100 µM | SK-MEL-2 > 100 µM | Hs-578T > 100 µM | SK-OV-3 > 100 µM | UO-31 > 100 µM | COLO 205 > 100 µM | OVCAR-3 > 100 µM | HL-60 > 100 µM | LOX IMVI 71.1 µM | RPMI-8226 > 100 µM | HOP-92 > 100 µM | SF-539 > 100 µM | TK-10 > 100 µM | SF-268 > 100 µM | A498 > 100 µM | RXF 393 > 100 µM

C=CCOC(=O)C1=C(C)N=C2N[C@H](CCCCCCCCC)C[C@@H]3CCC1N23 (some centres undefined)
inactive: SN12C 18.2 µM | OVCAR-5 22.7 µM | SK-MEL-2 19.8 µM | Hs-578T 21.5 µM | SK-OV-3 27.5 µM | Malme-3M 17.3 µM | UO-31 17.1 µM | EKVX 22.4 µM | COLO 205 21.3 µM | OVCAR-3 19.4 µM | HL-60 26.4 µM | LOX IMVI 21.6 µM | RPMI-8226 30.7 µM | HOP-92 19.3 µM | SF-539 19 µM | TK-10 19.2 µM | SF-268 19.3 µM | RXF 393 19.5 µM

CC(=O)O/N=C1\C=Cc2c(no[n+]2[O-])C1=O
inactive: SN12C 18.5 µM | OVCAR-5 18.3 µM | SK-MEL-2 17.8 µM | Hs-578T 20.8 µM | Malme-3M 14.7 µM | UO-31 15.1 µM | EKVX 17.3 µM | COLO 205 9.23 µM | OVCAR-3 16.2 µM | LOX IMVI 18 µM | RPMI-8226 30 µM | SF-539 17.3 µM | TK-10 15.6 µM | SF-268 20.8 µM | A498 16.4 µM | RXF 393 15.2 µM

CC(=O)Oc1c2c(c3n(c1=O)CCCC3)C(=O)N(c1ccccc1)C2=O
inactive: SN12C 83.2 µM | OVCAR-5 > 100 µM | SK-MEL-2 45.8 µM | Hs-578T > 100 µM | SK-OV-3 > 100 µM | Malme-3M > 100 µM | UO-31 95.7 µM | EKVX 94 µM | COLO 205 > 100 µM | OVCAR-3 86.7 µM | HL-60 > 100 µM | LOX IMVI > 100 µM | HOP-92 40.7 µM | SF-539 > 100 µM | TK-10 94.6 µM | SF-268 > 100 µM | RXF 393 > 100 µM

COC(=O)N/N=C(\c1ccccc1)c1ccc(OC)cc1
inactive: SN12C > 100 µM | OVCAR-5 > 100 µM | SK-MEL-2 > 100 µM | Hs-578T > 100 µM | SK-OV-3 > 100 µM | Malme-3M > 100 µM | UO-31 35.1 µM | EKVX > 100 µM | COLO 205 > 100 µM | OVCAR-3 > 100 µM | HL-60 > 100 µM | LOX IMVI 35.3 µM | RPMI-8226 > 100 µM | SF-539 > 100 µM | TK-10 > 100 µM | SF-268 > 100 µM | A498 > 100 µM | RXF 393 > 100 µM

C/C(=N\N=C(\N)OB(F)F)c1ccccn1
inactive: SN12C > 100 µM | OVCAR-5 > 100 µM | SK-MEL-2 > 100 µM | Hs-578T 28.6 µM | SK-OV-3 > 10 µM | Malme-3M > 100 µM | UO-31 71.4 µM | EKVX 18.5 µM | COLO 205 > 100 µM | OVCAR-3 92 µM | HL-60 63.5 µM | LOX IMVI 28.2 µM | HOP-92 12.7 µM | SF-539 > 100 µM | TK-10 59.7 µM | SF-268 > 100 µM | A498 > 100 µM | RXF 393 9.33 µM

CCOC(=O)c1nc2ccc(C(F)(F)F)cc2nc1NCc1cc(OC)c(OC)c(OC)c1
inactive: SN12C > 100 µM | OVCAR-5 > 100 µM | SK-MEL-2 40.8 µM | Hs-578T 32.3 µM | UO-31 35.3 µM | EKVX 60.3 µM | COLO 205 29.3 µM | OVCAR-3 55.5 µM | HL-60 33 µM | LOX IMVI 35.7 µM | RPMI-8226 17.7 µM | HOP-92 27.7 µM | SF-539 38.6 µM | TK-10 > 100 µM | SF-268 61.8 µM | A498 > 100 µM | RXF 393 39.9 µM

COc1cc(OC)c(OC)cc1/C=C/c1ccccn1
inactive: SN12C > 10 µM | OVCAR-5 > 10 µM | SK-MEL-2 > 10 µM | Hs-578T > 10 µM | SK-OV-3 > 10 µM | Malme-3M > 10 µM | UO-31 > 10 µM | EKVX > 10 µM | COLO 205 > 10 µM | OVCAR-3 > 10 µM | HL-60 > 10 µM | LOX IMVI > 10 µM | HOP-92 > 10 µM | SF-539 > 10 µM | TK-10 > 10 µM | SF-268 > 10 µM | A498 > 10 µM | RXF 393 > 10 µM

CC1=NN(c2nc(N)nc(-c3ccccc3S(N)(=O)=O)n2)C(C)(C)C1
inactive: OVCAR-5 27.2 µM | SK-MEL-2 9.2 µM | Hs-578T 74.1 µM | SK-OV-3 9.02 µM | UO-31 3.92 µM | EKVX 36.1 µM | OVCAR-3 16.3 µM | HL-60 6.03 µM | LOX IMVI 10.3 µM | RPMI-8226 27.2 µM | HOP-92 > 100 µM | SF-539 27.4 µM | TK-10 9.51 µM | SF-268 8.24 µM | A498 22.4 µM | RXF 393 14 µM

Cc1c(C(=O)O)c2cc3ccccc3cc2c(=O)n1C
inactive: SN12C > 10 µM | OVCAR-5 > 10 µM | SK-MEL-2 > 10 µM | Hs-578T > 10 µM | SK-OV-3 > 10 µM | Malme-3M > 10 µM | UO-31 > 10 µM | EKVX > 10 µM | OVCAR-3 > 10 µM | HL-60 > 10 µM | LOX IMVI > 10 µM | HOP-92 > 10 µM | SF-539 > 10 µM | TK-10 > 10 µM | SF-268 > 10 µM | RXF 393 > 10 µM

CCOC(=O)c1[nH]cc(C)c1-c1cccn1-c1ccc(Cl)cc1[N+](=O)[O-]
inactive: SN12C 24.7 µM | OVCAR-5 23.2 µM | SK-MEL-2 15.9 µM | Hs-578T 15.8 µM | UO-31 15.7 µM | EKVX 20.6 µM | COLO 205 17.8 µM | OVCAR-3 12 µM | LOX IMVI 17.5 µM | HOP-92 17.9 µM | SF-539 19.2 µM | TK-10 14.4 µM | SF-268 21.1 µM | A498 35.3 µM | RXF 393 13.7 µM

CC1(C)[N+]([O-])=[N+]([O-])C1(C)O (centres undefined)
inactive: SN12C > 100 µM | OVCAR-5 > 100 µM | SK-MEL-2 > 100 µM | Hs-578T > 100 µM | SK-OV-3 > 100 µM | Malme-3M > 100 µM | UO-31 > 100 µM | EKVX > 100 µM | COLO 205 > 100 µM | OVCAR-3 > 100 µM | HL-60 > 100 µM | LOX IMVI > 100 µM | RPMI-8226 > 100 µM | SF-539 > 100 µM | TK-10 > 100 µM | SF-268 > 100 µM | A498 > 100 µM | RXF 393 > 100 µM

S=c1scc(-c2ccc(Cl)cc2)n1OC1CCCC1
inactive: SN12C 35.8 µM | OVCAR-5 52.2 µM | SK-MEL-2 18.3 µM | Hs-578T 82.6 µM | SK-OV-3 36.2 µM | Malme-3M 56.2 µM | UO-31 40.6 µM | EKVX 28.1 µM | COLO 205 12 µM | OVCAR-3 16.7 µM | HL-60 22 µM | LOX IMVI 23.6 µM | HOP-92 21.3 µM | SF-539 10.8 µM | TK-10 72.8 µM | SF-268 72.9 µM | A498 26.1 µM | RXF 393 17.1 µM

CN(C)Cc1cc(C(=O)/C=C/c2ccc(Cl)cc2)cc(CN(C)C)c1O
inactive: SN12C 10.8 µM | OVCAR-5 24.2 µM | Hs-578T 17.5 µM | Malme-3M 11.7 µM | UO-31 7.4 µM | EKVX 12.8 µM | COLO 205 4.27 µM | OVCAR-3 3.06 µM | HL-60 2.86 µM | LOX IMVI 4.43 µM | RPMI-8226 7.89 µM | SF-539 19.3 µM | TK-10 18.4 µM | SF-268 18.2 µM | A498 12.7 µM | RXF 393 10.9 µM

CCC(CCCN)Nc1cc(OC)cc2c(C)ccnc12 (centres undefined)
inactive: SN12C 21.2 µM | OVCAR-5 17.7 µM | SK-MEL-2 20.8 µM | Hs-578T 13 µM | SK-OV-3 13.6 µM | Malme-3M 19.6 µM | UO-31 12.9 µM | EKVX 18.4 µM | COLO 205 18.2 µM | OVCAR-3 15.4 µM | HL-60 12.4 µM | LOX IMVI 16.3 µM | HOP-92 14 µM | SF-539 18.4 µM | TK-10 17.7 µM | SF-268 15.3 µM | A498 18.7 µM | RXF 393 13.8 µM
